Source: patent publication US7662404B2, “Transdermal delivery system for dried particulate or lyophilized peptides and polypeptides” (TransPharma Medical Ltd., priority 2002, dated 2010)
“And” between values parts separate entries of the source, which are not always exact repeats. Equal entries are not always repeated. Where two headings read alike, the source gives them in different places.

Tests used:
Format in all cases: in vivo
[1] = Plasma hPTH (1-34) after SC injection or printed patches (water) with ViaDerm in pigs (Example 11); settings: for bioavailability: read-out: % bioavailability cf. to S.C.
Method: Pigs (males, 10-12 kg, Large white) were treated as follows:
Group 1: 10 μg of hPTH (1-34) were injected subcutaneously (S.C.; total 3 pigs)
[…] Printed patches containing 50 μg hPTH (1-34) were placed over the treated area and covered with Tegaderm (3M Health Care, St. Paul, Minn.). Total delivery area=1.4 cm (total 3 pigs).
(§1) […] Printed patches containing 100 μg hPTH (1-34) were placed over the treated area and covered with Tegaderm. Total delivery area=1.4 cm (total 3 pigs).
as §1
hPTH (1-34) was dissolved in water and then printed on the patches. hPTH (1-34) concentrations in pig plasma were measured by an ELISA kit (Immutopics, San Clemente, Calif., USA).

[2] = Plasma hPTH (1-34) from different printed patch formulations in pigs (Example 12)
Method: The experiment was performed as follows: Group 1: Each pig underwent two ViaDerm applications (150 micro-channels/cm^2) on one site on the back. A 100 μg hPTH (1-34) printed patch was placed over the application area and covered with Tegaderm. Total delivery area=1.4 cm (total 3 pigs). Formulation: hPTH (1-34) in water for injection (WFI), pH=6. Group 2: Each pig underwent two ViaDerm applications (150 micro-channels/cm^2) on one site on the back. A 100 μg hPTH (1-34) printed patch was placed over the application area and covered with Tegaderm. Total delivery area=1.4 cm^2 (total 3 pigs). Formulation: hPTH (1-34): Sucrose (1:5.5) in 0.72% acetic acid, pH=4. Group 3: Each pig underwent two ViaDerm applications (150 micro-channels/cm^2) on one site on the back. A 100 μg hPTH (1-34) printed patch was placed over the application area and covered with Tegaderm. Total delivery area=1.4 cm^2 (total 3 pigs). Formulation: hPTH (1-34): Trehalose (1:11) in 0.4% citric acid, pH=4. Group 4: Each pig was injected SC with 0.2 ml (20 μg) of hPTH (1-34) diluted to a 100 μg/ml solution with saline (total 3 pigs).

[3] = Plasma hPTH (1-34) in female adult healthy human volunteers, ViaDerm and printed patches or SC (Example 13); design: AUC (individual subjects): unit not given here; settings: for Cmax (individual subjects): women; for Cmax (individual subjects) / AUC (individual subjects): 12 h; for Cmax AVG: mean of 4 women
Method: Transdermal drug delivery study of hPTH (1-34) in four female adult healthy human volunteers was performed using ViaDerm and printed patches.
To evaluate the transdermal delivery of hPTH (1-34), printed patches containing 100 μg or 200 μg hPTH (1-34) (FORTEO®, Teriparatide purchased from Ely Lilly, Indianapolis, Ind., USA) were prepared. Patch area was 1.44 cm^2.
ViaDerm parameters: electrode array of 75 or 100 micro-channels/cm^2; ViaDerm was applied two or three times generating micro-channels at a density of 150 or 300 micro-channels/cm^2; Voltage: 290 volts, constant voltage; Burst length: 5000 μsec; Maximal current: 50 mA.
Each female adult received five treatments of hPTH (1-34) with a minimum of 2 day clearance between treatments. The treatments were as follows: • 1. Three ViaDerm applications (final density of 300 micro-channels/cm^2) on one site of the upper arm. Two printed patches, each containing 100 μg hPTH (1-34), were placed over the application area (each for 6 hours). • 2. Two ViaDerm applications (final density of 150 micro-channels/cm^2) on one site of the upper arm. Two printed patches, each containing 200 μg hPTH (1-34), were placed over the application area. • 3. Three ViaDerm applications (final density of 300 micro-channels/cm^2) on one site of the upper arm. Two printed patches, each containing 200 μg hPTH (1-34), were placed over the application area. • 4. Subcutaneous (SC) injection of 20 μg hPTH (1-34) (FORTEO®, Teriparatide was purchased from Ely Lilly, Indianapolis, Ind., USA). • 5. SC injection of 60 μg hPTH (1-34) (FORTEO®).
Plasma hPTH (1-34), calcium ions and phosphate ions were determined by Eliza using commercial kits.

[4] = T-1: 300 micro-channels/cm^2, 2 printed patches each 100 μg
[5] = T-2: 150 micro-channels/cm^2, 2 printed patches each 200 μg

Amount delivered ([1]; S.C. 10 μg): 10 µg
AUC ([1]; male, Large white, pig, plasma, other: transdermal printed patch on ViaDerm-treated skin, 50 ug, printed patch 50 μg): 0.46 ng·h/mL
Cmax ([1]; male, Large white, pig, plasma, other: transdermal printed patch on ViaDerm-treated skin, 50 ug, printed patch 50 μg (water), ViaDerm, back, read-out: Cmax): ~0.15 ng/mL
AUC ([1]; male, Large white, pig, plasma, other: transdermal printed patch on ViaDerm-treated skin, 100 ug, patch 100 μg): 0.919 ng·h/mL
Cmax ([1]; male, Large white, pig, plasma, other: transdermal printed patch on ViaDerm-treated skin, 100 ug, printed patch 100 μg (water), ViaDerm, back, read-out: Cmax): 0.32 ng/mL
AUC ([1]; male, Large white, pig, plasma, other: transdermal printed patch on ViaDerm-treated skin, 200 ug, patch 200 μg): 1.6 ng·h/mL
Cmax ([1]; male, Large white, pig, plasma, other: transdermal printed patch on ViaDerm-treated skin, 200 ug, printed patch 200 μg (water), ViaDerm, back, read-out: Cmax): ~0.32 ng/mL
AUC ([1]; male, Large white, pig, plasma, sc, 10 ug, S.C. 10 μg): 0.365 ng·h/mL
bioavailability ([1]; male, Large white, pig, plasma, sc, 10 ug, S.C. 10 μg (reference)): 100%
Cmax ([1]; male, Large white, pig, plasma, sc, 10 ug, S.C. 10 μg, neck, read-out: Cmax): 0.374 ng/mL
bioavailability ([1]; male, Large white, pig, plasma, sc, 50 ug, printed patch 50 μg): 25.2%
bioavailability ([1]; male, Large white, pig, plasma, sc, 100 ug, patch 100 μg): 25.2%
bioavailability ([1]; male, Large white, pig, plasma, sc, 200 ug, patch 200 μg): 21.9%
Amount delivered ([1]; patch 100 μg): 225.18 µg
Amount delivered ([1]; patch 200 μg): 43.84 µg
Amount delivered ([1]; printed patch 50 μg): 12.6 µg
Cmax ([1]; printed patch 50 μg (water), ViaDerm, back): 0.136 ng/mL
Cmax ([1]; printed patch 200 μg (water), ViaDerm, back): 0.317 ng/mL
Amount delivered ([2]; S.C. 20 ug): 20 µg
% bio ([2]; S.C. 20 ug (reference)): 100%
AUC ([2]; pig, plasma, sc, S.C. 20 ug): 1.16 ± 0.761 ng·h/mL
Cmax ([2]; pig, plasma, sc, S.C. 20 ug, neck): 1.08 ng/mL
AUC (individual subjects) [3, 4]: 346 and 1340 and 1097 and 1067
Cmax AVG [3, 4]: 0.330918 ng/mL
AUC (individual subjects) [3, 5]: 398 and 1498 and 3743 and 2128
Cmax AVG [3, 5]: 0.642299 ng/mL
AUC (individual subjects) ([3]; T-3: 300 micro-channels/cm^2, 2 printed patches each 200 μg): 886 and 1251 and 4649 and 1327
Compound: CC[C@H](C)[C@H](NC(=O)[C@H](CCC(=O)O)NC(=O)[C@H](CO)NC(=O)[C@@H](NC(=O)[C@@H](N)CO)C(C)C)C(=O)N[C@@H](CCC(N)=O)C(=O)N[C@@H](CC(C)C)C(=O)N[C@@H](CCSC)C(=O)N[C@@H](Cc1cnc[nH]1)C(=O)N[C@@H](CC(N)=O)C(=O)N[C@@H](CC(C)C)C(=O)NCC(=O)N[C@@H](CCCCN)C(=O)N[C@@H](Cc1cnc[nH]1)C(=O)N[C@@H](CC(C)C)C(=O)N[C@@H](CC(N)=O)C(=O)N[C@@H](CO)C(=O)N[C@@H](CCSC)C(=O)N[C@@H](CCC(=O)O)C(=O)N[C@@H](CCCN=C(N)N)C(=O)N[C@H](C(=O)N[C@@H](CCC(=O)O)C(=O)N[C@@H](Cc1c[nH]c2ccccc12)C(=O)N[C@@H](CC(C)C)C(=O)N[C@@H](CCCN=C(N)N)C(=O)N[C@@H](CCCCN)C(=O)N[C@@H](CCCCN)C(=O)N[C@@H](CC(C)C)C(=O)N[C@@H](CCC(N)=O)C(=O)N[C@@H](CC(=O)O)C(=O)N[C@H](C(=O)N[C@@H](Cc1cnc[nH]1)C(=O)N[C@@H](CC(N)=O)C(=O)N[C@@H](Cc1ccccc1)C(=O)O)C(C)C)C(C)C [hPTH (1-34)]
Cmax (individual subjects) ([3]; T-1: 300 micro-channels/cm^2, 2 printed patches each 100 μg (dose 200 ug)): 0.094366 ng/mL and 0.394054 ng/mL and 0.437693 ng/mL and 0.39756 ng/mL
Cmax (individual subjects) ([3]; T-2: 150 micro-channels/cm^2, 2 printed patches each 200 μg (dose 400 ug)): 0.072528 ng/mL and 0.463893 ng/mL and 1.293464 ng/mL and 0.739311 ng/mL
Cmax (individual subjects) ([3]; T-3: 300 micro-channels/cm^2, 2 printed patches each 200 μg (dose 400 ug)): 0.296887 ng/mL and 0.534872 ng/mL and 1.304179 ng/mL and 0.46945 ng/mL
